Data on 18 compounds can be found in PubChem BioAssay (NCI).

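96-well plates; 48 h exposure; 5 concentrations. Endpoints by linear interpolation between flanking doses. Not reached: highest tested concentration assigned. GI50 marks 50% less growth. TGI is the concentration that stops growth completely.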

Test in all cases: growth of human tumour cells (NCI), 48 h
Test [1] relates to SF-539 CNS.
Test [2] concerns SF-268 CNS.
Test [3] relates to UACC-257 melanoma.
Test [4] deals with SK-MEL-28 melanoma.
The test system of test [5] is HCC-2998 colon.
Test [6] relates to HCT-15 colon.
Test [7] concerns SNB-75 CNS.
Test [8] has as its system MDA-MB-435.
The subject of test [9] is T-47D breast.

For `COc1cc(/C=C/c2ccc(OC)c(O)c2)cc(OC)c1`, the TGI in [1] worked out at 8.47 µM; in test [2], 80.5 µM; in test [3], 24.9 µM; in test [4] it was 24.5 µM; in test [5], 42.6 µM; in test [6], 24.2 µM.
`O=C(/C=C/c1ccc(Cl)c(Cl)c1)c1ccc2ccccc2c1`: the TGI in test [1], in test [7], in test [2], in test [3], in test [4] and in test [5] was more than 100 µM each time. Besides, in [6], the TGI is more than 100 µM.
Regarding `CCOC(=O)N[C@@H]1C(CC(=O)OC)O[C@H]2OC(C)(C)O[C@H]21` (stereo partly drawn), the TGI in test [1], in [7], in test [2], in test [3], in test [4] and in [5] was more than 100 µM in each case. Further, the TGI in [6] was more than 100 µM.
For the compound `CCOC(=O)C1SC(=Nc2ccc(C)c(C)c2)N=C1C` (stereo not drawn), the TGI in [1], in test [7], in [2], in test [3], in test [4] and in test [5] was more than 100 µM each time. This compound also displayed a TGI in [6] of more than 100 µM.
As to `COc1ccc(/C=C/c2c(C(=O)/C=C/c3ccccc3)c(C)nc3ccccc23)cc1`, the GI50 in test [8] was 2.18 µM; in [9], 1.77 µM; in [1], 1.76 µM; in test [7] it was 1.46 µM; in [2], 2.18 µM; in test [3], 1.7 µM. For the same compound, the values for the GI50 in test [4], in [5] and in test [6] were 1.88 µM, 1.88 µM and 1.38 µM, respectively. Besides, the TGI in [8] is 5.69 µM; in test [9] it was 5.11 µM; in test [1], 3.2 µM; in test [7], 4.44 µM; in test [2] it was 5.65 µM; in [3] it was 3.21 µM. In addition, the TGI is 3.47 µM in test [4], 3.48 µM in test [5] and 3.77 µM in test [6].
On to `CC1=[N+]([O-])c2ccccc2C(=O)C1=O`, for which the TGI in [1], in [7], in test [2], in [3], in test [4] and in [5] was more than 100 µM throughout. Besides, in [6], the TGI is more than 100 µM.
Regarding `COC(=O)C(CC(=O)Nc1ccc(C)cc1)C(=O)C(=O)Nc1c(C(C)C)cccc1C(C)C` (stereo not drawn), the TGI in test [1], in test [7], in test [2], in [4], in test [5] and in [6] was more than 100 µM throughout.
Regarding `CC(=O)O[C@H]1CCC2[C@@H]3CC[C@]4(C)CC(=O)C=C[C@]4(C)C3CC[C@@]21C` (stereo partly drawn), the TGI in test [8] is 94.7 µM; in test [1] it was 31.8 µM; in test [7], more than 93.1 µM; in test [2], 43.8 µM; in [3] it was 43.9 µM; in test [4] it was 33.9 µM. Moreover, the TGI is more than 88.5 µM in test [5] and 38.7 µM in [6].
For `COc1ccc2c3c([nH]c2c1[N+](=O)[O-])C(C)N(C)CC3` (stereo not drawn), the TGI in [1], in test [7], in test [3], in test [4], in test [5] and in test [6] was more than 100 µM each time.
Take `[N-]=[N+]=C1C(=O)NN=C1c1ccccc1`: the TGI in [1], in test [7], in test [2], in test [3], in [4] and in [5] was more than 100 µM throughout. The compound also returned a TGI in test [6] of more than 100 µM.
Take `O=C(c1cccc2ccccc12)N1CCC(C2CCN(C(=O)c3cccc4ccccc34)CC2)CC1`: the TGI in [1] was more than 100 µM; in test [7] it was 65.7 µM; in test [2] it was more than 100 µM; in [3], more than 100 µM; in test [4] it was more than 100 µM; in [6], more than 100 µM.
As to `Cc1[nH]c(=O)nc2[nH][nH]c(=O)c12`, the TGI in test [1], in test [2], in test [4] and in test [6] was more than 100 µM each time.
Turning to `COc1ccc(CN2CC(C)(C)C2=O)c(OC)c1`, the TGI in test [1], in test [7], in [2], in test [3], in [4] and in test [5] was more than 100 µM each time. The compound also displayed a TGI in test [6] of more than 100 µM.
Turning to `O=C(N/N=C/c1cc(Br)ccc1O)N/N=C/c1cc(Br)ccc1O`, the TGI in test [1], in [2], in test [3] and in test [4] was more than 100 µM each time.
Consider `Cc1nnc(NS(=O)(=O)c2ccc(N=Nc3cc(N=Nc4ccc(S(=O)(=O)Nc5nnc(C)s5)cc4)c4c(NC(=O)C(Cl)Cl)cccc4c3OC(=O)C(Cl)Cl)cc2)s1` (tested in a mixture with another compound), for which the TGI in [1] is 43 µM; in [7], 82 µM; in test [2] it was more than 100 µM; in [3], more than 100 µM; in test [4] it was 48.5 µM; in test [5], 62.1 µM. In [6], this compound registered a TGI of more than 100 µM.
In the case of `CN(C)CCC1(C2=CCCC2)CC/C(=C\c2ccc(Cl)cc2)C1=O` (stereo not drawn), the TGI in test [1] was 25.7 µM; in [7], 20.4 µM; in test [2], 26.1 µM; in [3] it was 8.62 µM; in [4], 7.4 µM; in test [5], 20.2 µM. This compound also registered a TGI in test [6] of 16.6 µM.
Take `O=C(O)CNS(=O)(=O)c1ccc(NC(=O)c2ccc([N+](=O)[O-])cc2)cc1`: the TGI in test [1], in test [7], in test [2], in test [3], in [4] and in test [5] was more than 100 µM each time. Further, the TGI in test [6] was more than 100 µM.
On to `O=C(CCc1nc(=S)[nH][nH]1)Nc1ccccc1Cl`, for which the TGI in test [1], in test [7], in [2], in test [3], in [4] and in test [5] was more than 100 µM in each case. Also, the TGI in test [6] is 41.3 µM.
